Results reported in publication PMC4493641, “Enhancement of E. coli acyl-CoA synthetase FadD activity on medium chain fatty acids” (PeerJ, 2015).

T1: FadD (Escherichia coli, UniProt P69451)
T1 construct: full-length, C-terminal His6 tag kept, pETDuet-1 (TJF032), expressed in E. coli BL21*(DE3) delta-fadD, partially purified by Ni-NTA
T1 sequence (P69451 1-561): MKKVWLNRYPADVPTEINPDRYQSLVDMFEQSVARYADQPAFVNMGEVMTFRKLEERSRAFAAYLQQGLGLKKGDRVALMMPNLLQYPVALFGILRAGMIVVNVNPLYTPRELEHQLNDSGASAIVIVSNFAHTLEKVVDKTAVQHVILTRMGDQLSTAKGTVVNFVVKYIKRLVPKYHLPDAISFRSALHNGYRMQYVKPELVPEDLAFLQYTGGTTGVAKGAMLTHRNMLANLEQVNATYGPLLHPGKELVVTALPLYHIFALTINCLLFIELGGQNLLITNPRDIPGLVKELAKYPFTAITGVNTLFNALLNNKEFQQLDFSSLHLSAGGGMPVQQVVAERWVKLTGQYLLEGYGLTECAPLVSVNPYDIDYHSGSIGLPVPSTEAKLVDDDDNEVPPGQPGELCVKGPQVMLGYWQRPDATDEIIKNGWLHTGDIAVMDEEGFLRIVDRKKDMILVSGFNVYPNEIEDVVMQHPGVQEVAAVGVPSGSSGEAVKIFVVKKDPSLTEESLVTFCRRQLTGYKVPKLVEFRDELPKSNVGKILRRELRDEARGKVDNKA

B1: FadD (Escherichia coli K-12) (protein)
chain: T1 sequence (P69451 1-561)

What was measured:
FadD = biological target: T1, FadD; assay: coupled AMP production assay (myokinase / pyruvate kinase / lactate dehydrogenase, NADH oxidation at […] nm); format: biochemical; settings: 2.5 mM ATP, 0.5 mM CoA, 8 mM MgCl2, 0.1% Triton X-100, pH 7.5, 30 °C; partially purified
purified protein = substrate: CCCCCCCC(=O)O; assay: purified protein; settings: 2.5 mM ATP, 0.5 mM CoA, 8 mM MgCl2, 0.1% Triton X-100, pH 7.5, 30 °C, partially purified

| Molecule | Km (FadD) | Km (purified protein) [µM] |
| --- | --- | --- |
| CCCCCCCC/C=C\CCCCCCCC(=O)O [oleate] | Vmax (A) and Km (B) values for the indicated substrates |  |
| B1 |  | 422 |
